Laboratory results taken from patent US20050192247A1, “Method of treating cancers” (priority 2004, published 2005).
Counter-ions that a name gives are not always drawn.

Columns and labels:
[1] = test system: ovary, colon, and pancreatic cancer cells; conditions: through induction of caspase; cited from earlier work
[2] = in vivo; cited from earlier work
[3] = test system: A549 human lung cancer cells; test: A549 human lung cancer xenograft mouse model; type: in vivo; conditions: for tumor growth during treatment: eight treatments
Method: The anti-tumor activity of β-lapachone is examined using a human lung cancer xenograft model. Briefly, athymic female nude mice (Ncr) are inoculated subcutaneously with 4×10^6 A549 human lung cancer cells, and the tumors are allowed to grow to approximately 50 mm^3 in size. The animals are randomized into five groups of seven animals per group, and treated intraperitoneally every three days with one of the following five regimens: β-lapachone at 40 mg/kg in 40% hydroxypropy-β-cyclodextran (“HPBCD”); β-lapachone at 60 mg/kg in 40% HPBCD; gemcitabine (GEMZAR®) at 120 mg/kg in PBS; β-lapachone (40 mg/kg)+gemcitabine (120 mg/kg); or vehicle control (40% HPBCD). The combination therapy group receives treatments with β-lapachone and gemcitabine at the indicated concentrations on the same day, every three days. Mice receive a total of eight treatments. Mean tumor volume is analyzed; data points in FIG. 2 represent the arithmetic mean+/−SEM of five tumors.

[4] = test system: Human pancreatic cancer Panc-1 cells; test: Panc-1 human pancreatic cancer xenograft mouse model; type: in vivo; conditions: post-treatment observation 19 days
Method: Human pancreatic cancer Panc-1 cells (2×10^6) are implanted subcutaneously into male athymic nude (Ncr) mice. Following establishment of tumor nodules (about 50 mm^3), the animals are randomized into four groups of five animals per group. The animals are treated intraperitoneally with one of four treatments: β-lapachone at 40 mg/kg in 40% hydroxypropy-β-cyclodextran; gemcitabine (Gemzar®) at 120 mg/kg (in PBS); β-lapachone (40 mg/kg)+gemcitabine (120 mg/kg); or vehicle control. The mice receive a total of ten treatments, administered every three days (on study day 5, 8, 11, 14, 17, 20, 31, 34, 37, and 40). The combination therapy group receives β-lapachone and gemcitabine on the same day in each treatment. Following treatment, the animals are observed for an additional 19 days. Tumors are measured throughout the treatment and post-treatment periods.

[5] = test system: human ovarian cancer, human prostate cancer, human breast cancer, human multiple myeloma; conditions: cited from earlier work
[6] = cited from earlier work
[7] = test system: human breast cancer cells; conditions: cited from earlier work
[8] = test system: CEM T lymphoblastoid cells; conditions: cited from earlier work

Row | Structure (SMILES) | type of cell death induced [1] | tolerability [2] | tumor growth during treatment ([3]; β-lapachone 60 mg/kg intraperitoneally every three days) | retardation of tumor growth, 60 mg/kg compared with 40 mg/kg ([3]; β-lapachone 60 mg/kg versus 40 mg/kg) | tumor re-growth after termination of treatment ([4]; β-lapachone 40 mg/kg) | anti-tumor effect as a single agent [5] | water solubility [6] | type of cell death induced [7] | tumor growth during treatment ([3]; gemcitabine 120 mg/kg intraperitoneally every three days) | tumor re-growth after termination of treatment ([4]; gemcitabine 120 mg/kg) [%] | internucleosomal DNA fragmentation [8]
1 | CC1(C)CCC2=C(O1)c1ccccc1C(=O)C2=O [β-lapachone, 3,4-dihydro-2,2-dimethyl-2H-naphtho[1,2-b]pyran-5,6-dione] | apoptosis | generally well-tolerated | retarded tumor growth | more effective at retarding tumor growth | no significant re-growth | decrease the number of tumors, reduce tumor size, or increase survival time | non-water soluble | induces necrosis | – | – | –
2 | Nc1ccn([C@@H]2O[C@H](CO)[C@@H](O)C2(F)F)c(=O)n1 [gemcitabine, 2′-deoxy-2′,2′-difluorocytidine monohydrochloride (β-isomer), reference compound] | – | – | – | – | – | – | – | – | retarded tumor growth | 400 | induces internucleosomal DNA fragmentation
